# In US20190307843A1, “SINGLE DOSE METHODS FOR PREVENTING AND TREATING FUNGAL INFECTIONS” (Cidara Therapeutics, Inc., priority 2016, published 2019):
# Where “and” joins values, the source holds several entries; their conditions need not be identical. Equal entries are not always repeated. Where two headings read alike, the source gives them in different places. Starred links: 1 amine or outer side, 2 acyl side, 3 side chain; linkers in the order of their positions; H or OH if unused. Positions of bridges follow the written chain, without caps; N, C: chain ends. Non-standard residues stand in square brackets, D forms with d. Residues, ends and D or L forms follow the SMILES beside them. *: point of attachment. Orn(4R-OH,5R-OCH2CH2NMe3+) = C[N+](C)(C)CCO[C@@H](N[*:3])[C@H](O)C[C@H](N[*:1])C(=O)[*:2]; pTerphenylCO(4''-OnC5H11) = CCCCCOc1ccc(-c2ccc(-c3ccc(C(=O)*)cc3)cc2)cc1; hTyr(3S-OH,4S-OH) = N[C@H](C(=O)O)[C@H](O)[C@@H](O)c1ccc(O)cc1; Pro(3S-OH,4S-Me) = C[C@H]1CN[C@H](C(=O)O)[C@H]1O; Hyp = O=C(O)[C@@H]1C[C@@H](O)CN1
# Assays:
# [1] = Protein binding by ultracentrifugation, human plasma; format: in vitro ADME
# Procedure: Concentrations in plasma ranging from 7 to 60 μg/mL were tested and resulting samples were analyzed by LC-MS/MS.
# [2] = tested on: A. fumigatus clinical isolates; test: CLSI broth microdilution (M38-A2) MEC, SENTRY clinical isolates; format: cell-based, Aspergillus fumigatus; settings: 153 A. fumigatus clinical isolates, 2014 and 2015
# Source text: The in vitro activity of CD101 was previously evaluated as part of the SENTRY international surveillance program using CLSI broth microdilution methodology (M38-A2, M27-A3; Pfaller, et al 2017). […] These susceptibility data were then compared graphically to CD101 plasma concentrations from studies in healthy adults, adjusted for plasma protein binding. Nonclinical efficacy in a murine model of Pneumocystis pneumonia were also considered to evaluate CD101 doses for clinical investigation of antifungal prophylaxis.
# (§1) The in vitro activity of CD101 was evaluated against 153 A. fumigatus clinical isolates collected as part of the 2014 and 2015 JMI international SENTRY surveillance program. Susceptibility was determined by measuring the minimal effective concentration (MEC) values in accordance with CLSI broth microdilution guidelines (M38-A2). In vivo tissue distribution of CD101 in SD rats (N=3/time up to 5 d) after a 5 mg/kg IV CD101 dose. Plasma/tissue concentrations were measured by LC-MS/MS.
# [3] = In vivo tissue distribution in SD rats after 5 mg/kg IV; settings: Sprague-Dawley, rat
# Procedure: as §1
# invasive candidiasis = test: Human subject with invasive candidiasis, single subcutaneous dose (Example 3); format: in vivo; settings: single dose of 50-1200 mg acetate salt of CD101, subcutaneous injection
# Procedure: A human subject is diagnosed with invasive candidiasis using standard diagnostic procedures. The subject receives treatment with a single dose of 50-1200 mg (e.g., 75±25 mg, 100±25 mg, 150±50 mg, 200±50 mg, 250±50 mg, 300±50 mg, 350±50 mg, 400±50 mg, 450±50 mg, 500±100 mg, 600±100 mg, 700±100 mg, 800±100 mg, 900±50 mg, 1000 mg±100 mg, or 1100±100 mg) of the acetate salt of CD101 administered by subcutaneous injection. No other antifungal treatment is provided to the subject within one to three weeks before or after administration of the single dose CD101 treatment.
# C. albicans = test: Neutropenic murine disseminated candidiasis model, PK/PD targets, C. albicans
# C. glabrata = test: Neutropenic murine disseminated candidiasis model, PK/PD targets, C. glabrata
# C. parapsilosis = test: Neutropenic murine disseminated candidiasis model, PK/PD targets, C. parapsilosis
# [4] = C. albicans, Median of 4 strains
# [5] = C. glabrata, Median of 3 strains
structure (smiles),measurement,setting,value
"CCCCCOc1ccc(-c2ccc(-c3ccc(C(=O)N[C@H]4C[C@@H](O)[C@@H](OCC[N+](C)(C)C)NC(=O)[C@@H]5[C@@H](O)[C@@H](C)CN5C(=O)[C@H]([C@@H](C)O)NC(=O)[C@H]([C@H](O)[C@@H](O)c5ccc(O)cc5)NC(=O)[C@@H]5C[C@@H](O)CN5C(=O)[C@H]([C@@H](C)O)NC4=O)cc3)cc2)cc1 [CD101] ({pTerphenylCO(4''-OnC5H11)}-[Orn(4R-OH,5R-OCH2CH2NMe3+)]T[Hyp][hTyr(3S-OH,4S-OH)]T[Pro(3S-OH,4S-Me)]; lactam 1-C)",free fraction in human vs mouse plasma,[1],~3 ×
same,"percent of bound CD101, mean",[1]; human plasma,97.4%
same,MEC50,[2],0.015 µg/mL
same,MEC90,[2],0.015 µg/mL
same,MEC range,[2],≤0.0078 to 0.03 µg/mL
same,Kp,"[3]; liver, kidney, lung, spleen, read-out: tissue/plasma exposure ratios",~4
same,half-life,"[3]; plasma, read-out: t1/2 in plasma (converted)",39 h
same,half-life,"[3]; tissues (all tissues studied), read-out: t1/2 in all tissues studied",40 to 77 h
same,invasive candidiasis infection at follow-up visit,invasive candidiasis,confirmed to be resolved
same,1 log kill 24 h Ave Free drug AUC/MIC,C. albicans; C. albicans 98-17,3.92
same,1 log kill dose,C. albicans; C. albicans 98-17,2.73 mg/kg
same,1 log kill free drug AUC0-168h/MIC,C. albicans; C. albicans 98-17,27.47
same,1 log kill total drug AUC0-168h/MIC,C. albicans; C. albicans 98-17,3433.40
same,Stasis 24 h Ave free drug AUC/MIC,C. albicans; C. albicans 98-17,2.19
same,Stasis free drug AUC0-168h/MIC,C. albicans; C. albicans 98-17,15.35
same,Stasis total drug AUC0-168h/MIC,C. albicans; C. albicans 98-17,1918.43
same,Static dose,C. albicans; C. albicans 98-17,1.34 mg/kg
same,1 log kill 24 h Ave Free drug AUC/MIC,C. albicans; C. albicans 98-210,6.72
same,1 log kill dose,C. albicans; C. albicans 98-210,2.28 mg/kg
same,1 log kill free drug AUC0-168h/MIC,C. albicans; C. albicans 98-210,47.01
same,1 log kill total drug AUC0-168h/MIC,C. albicans; C. albicans 98-210,5875.95
same,Stasis 24 h Ave free drug AUC/MIC,C. albicans; C. albicans 98-210,3.70
same,Stasis free drug AUC0-168h/MIC,C. albicans; C. albicans 98-210,25.93
same,Stasis total drug AUC0-168h/MIC,C. albicans; C. albicans 98-210,3241.65
same,Static dose,C. albicans; C. albicans 98-210,1.06 mg/kg
same,1 log kill 24 h Ave Free drug AUC/MIC,C. albicans; C. albicans 580,3.05
same,1 log kill dose,C. albicans; C. albicans 580,2.03 mg/kg
same,1 log kill free drug AUC0-168h/MIC,C. albicans; C. albicans 580,21.34
same,1 log kill total drug AUC0-168h/MIC,C. albicans; C. albicans 580,2667.21
same,Stasis 24 h Ave free drug AUC/MIC,C. albicans; C. albicans 580,2.02
same,Stasis free drug AUC0-168h/MIC,C. albicans; C. albicans 580,14.15
same,Stasis total drug AUC0-168h/MIC,C. albicans; C. albicans 580,1769.30
same,Static dose,C. albicans; C. albicans 580,1.20 mg/kg
same,1 log kill 24 h Ave Free drug AUC/MIC,C. albicans; C. albicans K-1,6.86
same,1 log kill dose,C. albicans; C. albicans K-1,5.26 mg/kg
same,1 log kill free drug AUC0-168h/MIC,C. albicans; C. albicans K-1,48.05
same,1 log kill total drug AUC0-168h/MIC,C. albicans; C. albicans K-1,6005.95
same,Stasis 24 h Ave free drug AUC/MIC,C. albicans; C. albicans K-1,3.65
same,Stasis free drug AUC0-168h/MIC,C. albicans; C. albicans K-1,25.58
same,Stasis total drug AUC0-168h/MIC,C. albicans; C. albicans K-1,3197.16
same,Static dose,C. albicans; C. albicans K-1,2.52 mg/kg
same,1 log kill 24 h Ave Free drug AUC/MIC,"C. albicans; C. albicans, Mean of 4 strains",5.14
same,1 log kill dose,"C. albicans; C. albicans, Mean of 4 strains",3.08 mg/kg
same,1 log kill free drug AUC0-168h/MIC,"C. albicans; C. albicans, Mean of 4 strains",35.97
same,1 log kill total drug AUC0-168h/MIC,"C. albicans; C. albicans, Mean of 4 strains",4495.63
same,Stasis 24 h Ave free drug AUC/MIC,"C. albicans; C. albicans, Mean of 4 strains",2.89
same,Stasis free drug AUC0-168h/MIC,"C. albicans; C. albicans, Mean of 4 strains",20.25
same,Stasis total drug AUC0-168h/MIC,"C. albicans; C. albicans, Mean of 4 strains",2531.64
same,Static dose,"C. albicans; C. albicans, Mean of 4 strains",1.53 mg/kg
same,1 log kill 24 h Ave Free drug AUC/MIC,C. albicans; [4],5.32
same,1 log kill dose,C. albicans; [4],2.51 mg/kg
same,1 log kill free drug AUC0-168h/MIC,C. albicans; [4],37.24
same,1 log kill total drug AUC0-168h/MIC,C. albicans; [4],4654.68
same,Stasis 24 h Ave free drug AUC/MIC,C. albicans; [4],2.92
same,Stasis free drug AUC0-168h/MIC,C. albicans; [4],20.5 and 20.46
same,Stasis total drug AUC0-168h/MIC,C. albicans; [4],2557.79
same,Static dose,C. albicans; [4],1.27 mg/kg
same,kill at high doses,"C. albicans; C. albicans, a number of strains",> 2 log10
same,1 log kill 24 h Ave Free drug AUC/MIC,C. glabrata; C. glabrata 5592,0.36
same,1 log kill dose,C. glabrata; C. glabrata 5592,0.43 mg/kg
same,1 log kill free drug AUC0-168h/MIC,C. glabrata; C. glabrata 5592,2.54
same,1 log kill total drug AUC0-168h/MIC,C. glabrata; C. glabrata 5592,317.50
same,Stasis 24 h Ave free drug AUC/MIC,C. glabrata; C. glabrata 5592,0.05
same,Stasis free drug AUC0-168h/MIC,C. glabrata; C. glabrata 5592,0.35
same,Stasis total drug AUC0-168h/MIC,C. glabrata; C. glabrata 5592,43.16
same,Static dose,C. glabrata; C. glabrata 5592,0.06 mg/kg
same,1 log kill 24 h Ave Free drug AUC/MIC,C. glabrata; C. glabrata 10956,1.20
same,1 log kill dose,C. glabrata; C. glabrata 10956,17.25 mg/kg
same,1 log kill free drug AUC0-168h/MIC,C. glabrata; C. glabrata 10956,8.42
same,1 log kill total drug AUC0-168h/MIC,C. glabrata; C. glabrata 10956,1052.22
same,Stasis 24 h Ave free drug AUC/MIC,C. glabrata; C. glabrata 10956,0.48
same,Stasis free drug AUC0-168h/MIC,C. glabrata; C. glabrata 10956,3.35
same,Stasis total drug AUC0-168h/MIC,C. glabrata; C. glabrata 10956,418.68
same,Static dose,C. glabrata; C. glabrata 10956,6.29 mg/kg
same,1 log kill 24 h Ave Free drug AUC/MIC,C. glabrata; C. glabrata 35315,0.42
same,1 log kill dose,C. glabrata; C. glabrata 35315,2.39 mg/kg
same,1 log kill free drug AUC0-168h/MIC,C. glabrata; C. glabrata 35315,2.94
same,1 log kill total drug AUC0-168h/MIC,C. glabrata; C. glabrata 35315,367.06
same,Stasis 24 h Ave free drug AUC/MIC,C. glabrata; C. glabrata 35315,0.07
same,Stasis free drug AUC0-168h/MIC,C. glabrata; C. glabrata 35315,0.50
same,Stasis total drug AUC0-168h/MIC,C. glabrata; C. glabrata 35315,62.50
same,Static dose,C. glabrata; C. glabrata 35315,0.34 mg/kg
same,1 log kill 24 h Ave Free drug AUC/MIC,"C. glabrata; C. glabrata, Mean of 3 strains",0.66
same,1 log kill dose,"C. glabrata; C. glabrata, Mean of 3 strains",6.69 mg/kg
same,1 log kill free drug AUC0-168h/MIC,"C. glabrata; C. glabrata, Mean of 3 strains",4.63
same,1 log kill total drug AUC0-168h/MIC,"C. glabrata; C. glabrata, Mean of 3 strains",578.93
same,Stasis 24 h Ave free drug AUC/MIC,"C. glabrata; C. glabrata, Mean of 3 strains",0.20
same,Stasis free drug AUC0-168h/MIC,"C. glabrata; C. glabrata, Mean of 3 strains",1.40
same,Stasis total drug AUC0-168h/MIC,"C. glabrata; C. glabrata, Mean of 3 strains",174.78
same,Static dose,"C. glabrata; C. glabrata, Mean of 3 strains",2.23 mg/kg
same,1 log kill 24 h Ave Free drug AUC/MIC,C. glabrata; [5],0.42
same,1 log kill dose,C. glabrata; [5],2.39 mg/kg
same,1 log kill free drug AUC0-168h/MIC,C. glabrata; [5],2.94
same,1 log kill total drug AUC0-168h/MIC,C. glabrata; [5],367.06
same,Stasis 24 h Ave free drug AUC/MIC,C. glabrata; [5],0.07
same,Stasis free drug AUC0-168h/MIC,C. glabrata; [5],0.5
same,Stasis total drug AUC0-168h/MIC,C. glabrata; [5],62.50
same,Static dose,C. glabrata; [5],0.34 mg/kg
same,kill at high doses,"C. glabrata; C. glabrata, a number of strains",> 2 log10
same,median stasis 24 h free drug AUC/MIC target,C. parapsilosis; C. parapsilosis,2.61
same,Stasis 24 h Ave free drug AUC/MIC,C. parapsilosis; C. parapsilosis 20423.072,1.39
same,Stasis free drug AUC0-168h/MIC,C. parapsilosis; C. parapsilosis 20423.072,9.74
same,Stasis total drug AUC0-168h/MIC,C. parapsilosis; C. parapsilosis 20423.072,1217.49
same,Static dose,C. parapsilosis; C. parapsilosis 20423.072,9.62 mg/kg
same,Stasis 24 h Ave free drug AUC/MIC,C. parapsilosis; C. parapsilosis 20477.048,3.82
same,Stasis free drug AUC0-168h/MIC,C. parapsilosis; C. parapsilosis 20477.048,26.72
same,Stasis total drug AUC0-168h/MIC,C. parapsilosis; C. parapsilosis 20477.048,3339.42
same,Static dose,C. parapsilosis; C. parapsilosis 20477.048,52.96 mg/kg
same,median stasis free drug AUC0-168/MIC target,C. parapsilosis; C. parapsilosis (only two strains achieved the endpoint),18.2
